# Assay results: doi:10.1101/2024.08.19.608619, “Discovery of potent SARS-CoV-2 nsp3 macrodomain inhibitors uncovers lack of translation to cellular antiviral response” (bioRxiv, 2024)
# pEC50, pIC50: −log10 of the molar value. Values joined by “and” are separate entries in the source; they are usually repeats but may differ in a detail not shown here. Equal values may be shown once. Read-outs that look alike come from different tables or passages of the source.
# Legend:
# [1] = biological target: T1, SARS-CoV-2 nsp3-mac1 (Severe acute respiratory syndrome coronavirus 2, UniProt P0DTD1); assay: biochemical; conditions: for hill_slope: TR-FRET dose response curve fit; for perc_max_measured: highest measured response; for perc_min_measured: lowest measured response
# [2] = biological target: T1, SARS-CoV-2 nsp3-mac1; assay: biochemical; assay type: biochemical; conditions: for perc_inhibition_mean: SARS-CoV-2 nsp3 macrodomain TR-FRET single point, concentration 50.0 uM; for inhibition at 50 µM / inhibition at 100 µM: read-out: perc_inhibition_mean
# [3] = biological target: T1, SARS-CoV-2 nsp3-mac1; assay: biochemical; parameters: SARS-CoV-2 nsp3 macrodomain TR-FRET single point, per cent inhibition, n=2
# [4] = system: HeLa-ACE2 cells; conditions: for perc_max_measured: highest measured response of the dose series; for perc_min_measured: lowest measured response of the dose series
# [5] = system: SARS-CoV-2; assay: Antiviral effect in iPSC-derived pneumocyte system; assay type: cell-based; conditions: iPSC pneumocytes SARS-CoV-2 antiviral effect; for perc_max_measured: maximum measured response of dose series; for perc_min_measured: minimum measured response of dose series
# [6] = system: iPSC pneumocytes; assay: iPSC pneumocytes cytotoxicity; assay type: cell-based; conditions: protocol iPSC pneumocytes cytotoxicity; for perc_max_measured: highest measured response of the dose series; for perc_min_measured: lowest measured response of the dose series
# Source text: Supplement media-1.zip/Cytotoxicity.csv, table | column: cc10; cc50; perc_min_measured; perc_max_measured
# [7] = system: SARS-CoV-2, isolate USA-WA1/2020; assay: microbe, parasite or virus in culture; assay type: cell-based; conditions: HeLa-ACE2 SARS-CoV-2 antiviral effect without P-gp inhibitor; for perc_max_measured: maximum measured response of dose series; for perc_min_measured: minimum measured response of dose series; for pEC50: read-out: ec50; for EC90: read-out: ec90
# [8] = in vitro; conditions: human, hela-ace2 cells, 50.0
# [9] = Hepatic microsomal stability, MLM; assay type: in vitro ADME
# [10] = Hepatic microsomal stability, HLM; assay type: in vitro ADME, human; conditions: In vitro human liver microsomal stability; for perc_remaining_no_cofactor: no cofactor
# [11] = Permeability Papp (AB) MDR1/MDCKII; conditions: In vitro MDR1-MDCKII permeability; for papp_a_to_b_mean: A to B; for perc_recovery_a_to_b_mean: recovery A to B
# [12] = In vitro kinetic solubility; conditions: In vitro kinetic solubility, ph 7.4
# [13] = LogD; conditions: pH 7.4, In vitro LogD
# [14] = HTRF IC50, Figure 4A, racemic mixture
# [15] = TR-FRET dose response, supplement, read-out: ic50
# [16] = protocol HeLa-ACE2 cytotoxicity
# [17] = IC50, nsp3-mac1 activity, Figures 1-3 and text
# [18] = In vitro mouse liver microsomal stability
# [19] = In vitro mouse liver microsomal stability; no cofactor
# [20] = In vitro mouse liver microsomal stability, no cofactor
compound,measurement,setting,value
CC(C)C(Nc1ncnc2[nH]c(C(=O)NC3CCN(C)C3)cc12)c1ccc2c(c1)OCCO2 (centres unmarked) [ASAP-0010747],pIC50,[1]; [14],6.34
c1nc(NC(c2ccc3c(c2)OCCO3)C2CCC2)c2cc[nH]c2n1 (centres unmarked) [ASAP-0000866],pIC50,[1]; [14],5.24
COc1ccc(C(Nc2ncnc3[nH]ccc23)C(C)C)cc1 (centres unmarked) [ASAP-0000752],pIC50,[1]; [14],5.14
O=C(O)C(Nc1ncnc2[nH]ccc12)c1ccc2c(c1)OCCO2 (centres unmarked) [ASAP-0000789],pIC50,[1]; [14],5.06
OC[C@@H](Nc1ncnc2[nH]c(I)cc12)c1ccccc1 [ASAP-0000197],perc_inhibition_mean,[2],26.134%
same,inhibition at 50 µM,"[3]; read-out: perc_inhibition_mean, batch_name=ASAP-0000197-001",26.1%
same,hill_slope,[1],1.082
same,perc_max_measured,[1]; TR-FRET dose response,42.06%
same,perc_min_measured,[1]; TR-FRET dose response,-3.652%
same,pIC50,[1]; [15],< 3.91
O=C(NCc1cc2n(n1)CCCC2)c1cc2cncnc2[nH]1 [ASAP-0000134],perc_inhibition_mean,[2],4.173%
same,inhibition at 50 µM,"[3]; read-out: perc_inhibition_mean, batch_name=ASAP-0000134-001",4.17%
same,perc_max_measured,[1]; TR-FRET dose response,2.258%
same,perc_min_measured,[1]; TR-FRET dose response,-11.392%
same,pIC50,[1]; [15],< 3.91
CC(C)[C@@H](Nc1ncnc2[nH]c(-c3cnn(C)n3)cc12)c1ccc2c(c1)OCCO2 [ASAP-0008469],CC50,[4],> 20 µM
same,cc10,[4],> 20.0 µM
same,perc_max_measured,[4]; [16],104.412% and 106.04%
same,perc_min_measured,[4]; [16],76.407% and 89.613%
same,pEC50,[5],4.88
same,EC90,[5],25.3 µM
same,perc_max_measured,[5],157.709%
same,perc_min_measured,[5],4.934%
same,perc_max_measured,[6],89.766%
same,perc_min_measured,[6],75.657%
same,perc_max_measured,[7],101.658% and 92.76%
same,perc_min_measured,[7],24.481% and 27.109%
same,pEC50,[7],5.27 and 5.18
same,EC90,[7],> 20 µM
same,CC50 at 24 h,[8],> 20 µM
CC(C)(C)C(Nc1ncnc2[nH]ccc12)c1ccc2c(c1)OCCO2 (centres unmarked) [ASAP-0008277],pIC50,[1]; [14],5.96
FC(F)(F)C(Nc1ncnc2[nH]ccc12)c1ccc2c(c1)OCCO2 (centres unmarked) [ASAP-0000870],pIC50,"[1]; Figure 4A, racemic mixture, read-out: HTRF IC50",4.72
Cc1[nH]c2ncnc(NC(=O)c3ccncc3Cl)c2c1C [ASAP-0000266],inhibition at 50 µM,[2],69.6%
same,inhibition at 100 µM,[2],85.6%
same,pIC50,[1]; [17],4.60
O=C(OCc1cccc(Cl)n1)c1ncnc2[nH]ccc12 [ASAP-0000193],perc_inhibition_mean,[2],11.426%
same,inhibition at 50 µM,"[3]; read-out: perc_inhibition_mean, batch_name=ASAP-0000193-001",11.4%
same,hill_slope,[1],1.685
same,perc_max_measured,[1]; TR-FRET dose response,38.614%
same,perc_min_measured,[1]; TR-FRET dose response,-4.676%
same,pIC50,[1]; [15],< 3.91
O=C(Nc1ccccc1)Nc1ccc(C(=O)NC2c3cccc(O)c3CC2C(=O)O)cc1 (centres unmarked) [ASAP-0000132],clint,[9]; [18],2.0 µL/min/mg
same,perc_remaining,[9]; [18],111.0%
same,t_half,[9]; [18],1066.4 min
same,perc_remaining_no_cofactor,[9]; [19],99.0%
same,clint,[10],9.0 µL/min/mg
same,perc_remaining,[10],123.0%
same,t_half,[10],187.2 min
same,perc_remaining_no_cofactor,[10],96.0%
same,papp_a_to_b_mean,[11]; mean,0.7 ×10⁻⁶ cm/s
same,perc_recovery_a_to_b_mean,[11]; mean,91.0%
same,solubility_mean,[12],319 µM
same,perc_inhibition_mean,[2],99.903%
same,inhibition at 50 µM,"[3]; read-out: perc_inhibition_mean, batch_name=ASAP-0000132-001",99.9%
same,hill_slope,[1],1.06
same,perc_max_measured,[1]; TR-FRET dose response,99.438%
same,perc_min_measured,[1]; TR-FRET dose response,-1.931%
same,pic50,"[1]; TR-FRET dose response, supplement",5.991
same,pIC50,[1]; [15],5.99
same,logd,[13],0.12
CC(C)C(Nc1ncnc2[nH]ccc12)c1ccc2c(c1)NC(=O)CO2 (centres unmarked) [ASAP-0008431],clint,[9]; [18],78.0 µL/min/mg
same,perc_remaining,[9]; [18],26.0% and 27.0%
same,t_half,[9]; [18],20.9 min and 21.4 min
same,perc_remaining_no_cofactor,[9]; [20],110.0%
same,perc_remaining_no_cofactor,[9]; [19],93.0%
same,microsomal CLint,"[9]; mouse, liver microsomes, In vitro mouse liver microsomal stability",80 µL/min/mg
same,clint,[10],31.0 µL/min/mg
same,perc_remaining,[10],73.0% and 56.0%
same,t_half,[10],79.0 min and 54.3 min
same,perc_remaining_no_cofactor,[10],105.0% and 92.0%
same,microsomal CLint,"[10]; human, liver microsomes",21 µL/min/mg
same,perc_recovery_a_to_b_mean,[11]; mean,86.0% and 98.9%
same,solubility_mean,[12],374 µM
same,solubility,"[12]; pH 7.4, solubility_mean",389 µM
same,pIC50,[1]; [14],6.41
same,logd,"[13]; pH 7.4, logd",2.2
Cc1[nH]c2ncnc(NC(=O)C3CC=CC3)c2c1C [ASAP-0000025],inhibition at 50 µM,[2],73.1%
same,pIC50,[1]; [17],4.38
CC(C)C(Nc1ncnc2[nH]c(-c3cnn(C)c3)cc12)c1ccc2c(c1)OCCO2 (centres unmarked) [ASAP-0008596],pIC50,[1]; [17],6.25
CC(C)C(Nc1ncnc2n[nH]cc12)c1cnn(C)c1 (centres unmarked) [ASAP-0000031],inhibition at 50 µM,[2],63.5%
same,pIC50,[1]; [17],4.37
Cn1ncc(-c2cc3c(N[C@@H](c4ccc5c(c4)OCCO5)C(C)(C)C)ncnc3[nH]2)c1C#N (racemic) [ASAP-0008484],CC50,[4]; [16],> 20 µM
same,cc10,[4]; [16],> 20.0 µM
same,perc_max_measured,[4]; [16],117.871% and 98.808%
same,perc_min_measured,[4]; [16],61.501% and 55.999%
same,clint,[9]; [18],199.0 µL/min/mg
same,perc_remaining,[9]; [18],4.0%
same,t_half,[9]; [18],8.4 min
same,perc_remaining_no_cofactor,[9]; [19],100.0%
same,clint,[10],85.0 µL/min/mg
same,perc_remaining,[10],22.0%
same,t_half,[10],19.6 min
same,perc_remaining_no_cofactor,[10],109.0%
same,pEC50,[5],5.12
same,EC90,[5],13.4 µM
same,perc_max_measured,[5],131.986%
same,perc_min_measured,[5],2.165%
same,papp_a_to_b_mean,[11]; mean,2.79 ×10⁻⁶ cm/s
same,perc_recovery_a_to_b_mean,[11]; mean,39.4%
same,solubility_mean,[12],25 µM
same,CC50,[6],48.6 µM
same,cc10,[6],41.767 µM
same,perc_max_measured,[6],107.062%
same,perc_min_measured,[6],63.039%
same,perc_max_measured,[7],91.316% and 93.387%
same,perc_min_measured,[7],1.9% and 1.413%
same,pEC50,[7],5.98 and 5.95
same,EC90,[7],2.12 µM and 3.3 µM
same,CC50 at 24 h,[8],> 20 µM
same,logd,[13],2.9
O=C(O)c1cscc1C(=O)N1CCC(c2ccn3ncc(C(=O)N4CCCCC4)c3c2)CC1 [ASAP-0000259],inhibition at 50 µM,[2],47.7%
same,inhibition at 100 µM,[2],66.7%
same,pIC50,[1]; [17],4.36
O=C(c1cccc(Br)c1)N1CCC(c2ccn3ncc(C(=O)N4CCCCC4)c3c2)CC1 [ASAP-0000191],perc_inhibition_mean,[2],32.136%
same,inhibition at 50 µM,"[3]; read-out: perc_inhibition_mean, batch_name=ASAP-0000191-001",32.1%
same,hill_slope,[1],0.907
same,perc_max_measured,[1]; TR-FRET dose response,41.392%
same,perc_min_measured,[1]; TR-FRET dose response,-0.981%
same,pIC50,[1]; [15],< 3.91
CC(C)[C@@H](Nc1ncnc2[nH]c(-c3cnn(CC(=O)N(C)C)c3)cc12)c1ccc2c(c1)OCCO2 [ASAP-0008485],CC50,[4]; [16],> 20 µM
same,cc10,[4]; [16],> 20.0 µM
same,perc_max_measured,[4]; [16],96.628% and 85.957%
same,perc_min_measured,[4]; [16],73.752% and 75.897%
same,clint,[9]; [18],59.0 µL/min/mg
same,perc_remaining,[9]; [18],39.0%
same,t_half,[9]; [18],28.1 min
same,perc_remaining_no_cofactor,[9]; [19],98.0%
same,clint,[10],142.0 µL/min/mg
same,perc_remaining,[10],9.0%
same,t_half,[10],11.8 min
same,perc_remaining_no_cofactor,[10],110.0%
same,papp_a_to_b_mean,[11]; mean,1.15 ×10⁻⁶ cm/s
same,perc_recovery_a_to_b_mean,[11]; mean,80.8%
same,solubility_mean,[12],210 µM
same,perc_max_measured,[7],120.313% and 102.904%
same,perc_min_measured,[7],86.961% and 72.697%
same,pEC50,[7],< 4.70
same,EC90,[7],> 20 µM
same,CC50 at 24 h,[8],> 20 µM
same,logd,[13],2.3
CNC(=O)c1cccc(-c2cc3c(N[C@@H](c4ccc5c(c4)S(=O)(=O)CCC5)C(C)C)ncnc3[nH]2)c1 [ASAP-0012344],CC50,[4]; [16],> 20 µM
same,cc10,[4]; [16],> 20.0 µM
same,perc_max_measured,[4]; [16],109.077%
same,perc_min_measured,[4]; [16],84.376%
same,clint,[9]; [18],882.0 µL/min/mg
same,perc_remaining,[9]; [18],1.0%
same,t_half,[9]; [18],1.9 min
same,perc_remaining_no_cofactor,[9]; [20],101.0%
same,clint,[10],455.0 µL/min/mg
same,perc_remaining,[10],0.0%
same,t_half,[10],3.7 min
same,perc_remaining_no_cofactor,[10],93.0%
same,papp_a_to_b_mean,[11]; no inhibitor,0.627 ×10⁻⁶ cm/s
same,perc_recovery_a_to_b_mean,[11]; no inhibitor,67.1%
same,solubility_mean,[12],15 µM
same,perc_max_measured,[7],108.746%
same,perc_min_measured,[7],56.34%
same,pEC50,[7],< 4.70
same,EC90,[7],> 20 µM
same,CC50 at 24 h,[8],> 20 µM
same,logd,[13],3.7
